Read-outs that look alike come from different tables or passages of the source.
What was measured:
MiaPaCa-2 cells [1] = assay: Bru-seq analysis for nascent RNA synthesis; format: cell-based
Source text: A bromouridine labeled RNA sequencing (Bru-seq) technique was used to better characterize molecular mechanisms of these novel agents. Bru-seq is able to capture real-time synthesis of the nascent RNA, so as to provide information on global gene transcription without interference by RNA stability or biased gene selection (Paulsen et al., 2014, Paulsen et al., 2013). […] Profiling of all genes with >1.5-fold change in expression upon treatment of QD232 or QD325 identified NRF2-mediated oxidative stress response and unfolded protein response (UPR) as key pathways implicated in drug action (FIG. 8A).
Bru-seq analysis was performed as previously reported (Paulsen et al., 2014). Briefly, 4×10^6 MiaPaCa-2 cells were placed in 10 cm dishes on Day 1. On Day 2, cells were treated with DMSO, QD232 or QD325 for 4 h. Bromouridine was added into the media to label newly synthesized nascent RNA in the last 30 min of treatment to a final concentration of 2 mM. Cells were then collected in TRIZOL and total RNA was isolated. Bromouridine containing RNA population was further isolated and sent for sequencing. Sequencing reads were mapped to the HG19 reference genome. Pre-ranked gene lists were generated for each treatment through ranking genes by fold changes in gene synthesis levels compared with control, and analyzed with GSEA (Broad Institute, MA) (Subramanian et al., 2005, Mootha et al., 2003)

[2] = Systemic toxicity in MiaPaCa-2 engrafted mice
Method: MiaPaCa-2 cells (2.0×10^6) in a 100 μL suspension of RPMI1640 was injected subcutaneously into dorsal flank of 6-week NOD/SCID mice. Tumor size was monitored twice a week through caliper measurement using the following equation: V=d^2×D/2, where d represents width and D represents length of the tumor. In study 1, mice were randomly grouped (n=5 per group) when average tumor size reached 65 mm^3. Daily treatment was given at five days on two days off cycles. QD325 was given at 5 mg/kg in 100 μL vehicle (5% DMSO, 60% Propylene glycol, 35% Saline) by intraperitoneal injection. […] Unpaired t test was performed for data analysis and p<0.05 was considered significant. […] Procedures for study 2 with gemcitabine treatment are detailed in supplemental information.
On necropsy, tumors, hearts, kidneys, livers, lungs, spleens and pancreases were collected, fixed in 10% neutral buffered formalin, embedded in paraffin, and sectioned. Sections ([…]) were stained with hematoxylin and eosin to facilitate histologic examination. For Ki67 expression level, immunohistochemistry staining was performed on sections with Ki67 antibody. Embedding, sectioning and staining of samples were performed by ULAM pathology core for animal research at the University of Michigan. Representative images were taken on Olympus IX83 microscope with 20× magnification.

Panc-1 cells = assay: MTT cytotoxicity assay, Panc-1; format: cell-based; details: three independent experiments
Method: (§1) MiaPaCa-2, Panc-1 and BxPC-3 pancreatic cancer cell lines were obtained from the ATCC. Normal pancreatic cells HPDE and HPNE were kindly provided (Translational Oncology Program, University of […], Ann Arbor, Mich.). Gemcitabine resistant cell line MiaPaCa-2-GR (gemcitabine resistant) was kindly provided (Department of Pathology, Wayne State University, Detroit, Mich.). All cell lines were cultured as monolayer and maintained in RPMI1640 supplemented with 10% fetal bovine serum (FBS) in a humidified atmosphere with 5% CO2 at 37° C. MiaPaCa-2-GR culture was supplemented with 200 nM gemcitabine.
(§2) Cytotoxicity of compounds was evaluated with 3-(4,5-dimethylthiazol-2-yl)-2,5-diphenyltetrazolium bromide (MTT) assay. Cells were placed in 96-well plate at 3000-8000 cells/well. After overnight attachment, compounds were added to the wells at sequential dilutions (30 nM-10 μM for most cell lines). After 72 h treatment, MTT was added into the media to a final concentration of 300 μg/mL. Cells were incubated for 3 h at 37° C., and the insoluble formazan converted by viable cells were dissolved in 150 μL of DMSO. Absorbance at 570 nm was read by microplate reader (Molecular devices, Sunnyvale, Calif.), and inhibition of cell proliferation was calculated using the following formula: Inhibition of cell proliferation (%)=(1−ODtreatment/ODcontrol)×100%

[3] = system: mtDNA content in MiaPaCa-2 cells; assay: Measurement of mtDNA content by qPCR; format: cell-based; details: MiaPaCa-2 (FIG. 11C)
Method: To assess mtDNA content, genomic DNA was isolated with QIAamp® DNA mini kit (Qiagen, Germantown, Md.) from MiaPaCa-2 cells. The mtDNA content was evaluated by co-amplifying a DNA fragment encoding mitochondrial 12S rRNA (forward primer: 5′-[…]-3′; reverse primer: 5′-TGCGCTTACTTTGTAG CCTTCAT-3′) and a DNA fragment encoding the nuclear 18S rRNA (forward primer: 5′-CCCTGCC CTTTGTACACACC-3′; reverse primer: 5′-GATCCGAGGGCCTCACTA-3′). (Vadrot et al., 2012) Real-time qPCR was performed on Viia7 cycler (Applied Biosystems). Amplifications were monitored and analyzed by measuring the intercalation of the fluorescent dye from Fast SYBR® Green Master Mix (Applied Biosystems). Relative mtDNA contents were calculated using 18S rRNA as gene reference.

HPDE = assay: MTT cytotoxicity assay, immortalized pancreatic cell line HPDE; format: cell-based, human; details: HPDE vs MiaPaCa-2
Method: as §1, §2

MiaPaCa-2 cells [4] = assay: MTT cytotoxicity assay, MiaPaCa-2; format: cell-based; details: for IC50: Homo sapiens, Mean ± SD, three independent experiments
Method: as §1, §2

BxPC-3 cells = assay: MTT cytotoxicity assay, BxPC-3; format: cell-based; details: Homo sapiens, three independent experiments
Method: as §1, §2

With `O=C1C(Nc2ccc(-c3ccccc3)cc2)=CC(=O)c2ncncc21` [QD325, 6-([1,1′-biphenyl]-4-ylamino)quinazoline-5,8-dione] the “apoptosis signaling (IPA analysis)” value (MiaPaCa-2 cells [1]; 4 h, QD232 3 times IC50, QD325 5 times IC50 (FIG. 4)) was “significant activation of apoptosis signaling”, the “nascent RNA synthesis of mitochondrial genome” value (MiaPaCa-2 cells [1]; 4 h, QD232 at 6.9 μM, QD325 at 5.0 μM (FIG. 10A)) was “inhibited” and the “transcription of DDIT3 and HSPA5” value (MiaPaCa-2 cells [1]; 4 h treatment, dose dependently (FIG. 8C)) was “significantly increased”. For the same compound, the “synthesis of NQO1 and HMOX1 RNAs” value (MiaPaCa-2 cells [1]; 4 h treatment, QD232 at 1, 2 or 3 times IC50, QD325 at 1, 2 or 5 times IC50 (FIG. 8B)) was “dose-dependently upregulated”, the “body weight of engrafted mice” value ([2]; QD325 5 mg/kg (FIG. 12B)) was “not affected” and the “body weight of engrafted mice” value ([2]; QD325 5-20 mg/kg (FIG. 13B)) was “not affected”. For the same compound, the “systemic toxicity at higher doses” value ([2]; doses as high as 20 mg/kg) was “no systemic toxicity was observed”, the “histopathology of H&E stained organ sections” value ([2]; liver, kidney, heart, lung, spleen and pancreas, QD325 5 mg/kg (FIG. 12C)) was “did not reveal major histopathological changes” and the IC50 (Panc-1 cells; Homo sapiens, PANC-1, Table 2, Mean ± SD, read-out: IC 50 Panc-1) was 400 ± 100 nM. For the same compound, the IC50 (Panc-1 cells; Table 1, 72 h, Mean ± SD) was under 1000 nM, the “relative levels of mtDNA over time” value [3] was “decreased time dependently” and the “selectivity for MiaPaCa-2 over HPDE” value (HPDE) was 3 fold. The IC50 (MiaPaCa-2 cells [4]; MIA PaCa-2, 72 h, Table 1, MTT assay, 72 h) was under 1000 nM, the IC50 (MiaPaCa-2 cells [4]; MIA PaCa-2, Table 2, MTT assay, read-out: IC 50 MiaPaCa-2) was 900 ± 200 nM and the “improvement in cytotoxicity compared with QD232” value (MiaPaCa-2 cells [4]; MTT assay in PDAC cell lines MiaPaCa-2, Panc-1 and BxPC-3) was “more than two fold improvement in cytotoxicity”. For the same compound, the “cytotoxicity in presence of NAC” value (MiaPaCa-2 cells [4]; MTT assay, 72 h, NAC 5 mM (FIG. 3C)) was “decreased cytotoxicity”, the IC50 (BxPC-3 cells; BXPC-3, 72 h, Table 1, 72 h, Mean ± SD) was under 1000 nM and the IC50 (BxPC-3 cells; BXPC-3, Table 2, Mean ± SD, read-out: IC 50 BxPC-3) was 500 ± 100 nM.

Source: patent US10781183B2, “Small molecule inducers of reactive oxygen species and inhibitors of mitochondrial activity” (The Regents of the University of Michigan, priority 2016, dated 2020)
